These results are taken from US5859207A (priority 1996, dated 1999).

The test system of data set [1] is Human peripheral blood mononuclear cells (PBMC).
The test system is the same in data set [2]. In kind it is cell-based.
In a further data set the test system is human monocytes. It counts as binding.

Take toxic shock syndrome toxin one [TSST-1]: in data set [1], the TNFα production was 99 units/ml, the “TNFα production by monocytes depleted of T cells” value is “approximately 25 units TNFα/ml”, the “cytotoxic activity neutralized by anti-TNFα antibody” value amounted to 76% and the “induction of TNFα production (in words)” value is “induced significant TNFα production”.
staphylococcal enterotoxin A [SEA] displayed an IL-1 activity in data set [2] of 875±5 units/ml. Further, the “inhibition of biotinylated SEA(121-149) binding to monocytes” value with human monocytes is recorded as “specifically inhibited”. Moreover, in data set [1], the “concentration at which native SEA is effective (TNFα induction)” value is 0.1 to 1 nM and the “cytotoxic activity neutralized by anti-TNFα antibody” value was 63%.
